The test system of test [1] is P388. As to the kind of experiment: In-vivo antileukemic activity against mouse P388 cells assessed as host survival at 20 mg/kg qd relative to control. Type of test: functional.
Test [2] has as its system P388. As to the kind of experiment: In-vivo antileukemic activity against mouse P388 cells assessed as host survival at 10 mg/kg qd relative to control. The format is functional.
Test [3] relates to P388. Description: In-vivo antileukemic activity against mouse P388 cells assessed as host survival at 8 mg/kg qd relative to control. The format is functional.
In test [4] the test system is P388. As to the kind of experiment: In-vivo antileukemic activity against mouse P388 cells assessed as host survival at 5 mg/kg qd relative to control. Type of test: functional.
The test system of test [5] is P388. As to the kind of experiment: In-vivo antileukemic activity against mouse P388 cells assessed as host survival at 100 mg/kg qd. Type of test: functional, organism-based. Set-up: dose 100 mg/kg.
The subject of test [6] is P388. Description: In-vivo antileukemic activity against mouse P388 cells assessed as host survival at 64 mg/kg qd. Type of test: functional, organism-based. Set-up: dose 64 mg/kg.
In test [7] the test system is P388. Description: In-vivo antileukemic activity against mouse P388 cells assessed as host survival at 50 mg/kg qd. The format is functional, organism-based. More on the design: dose 50 mg/kg.
Test [8] deals with P388. Description: In-vivo antileukemic activity against mouse P388 cells assessed as host survival at 5 mg/kg qd. Type of test: functional, organism-based. More on the design: dose 5 mg/kg.
The subject of test [9] is P388. As to the kind of experiment: In-vivo antileukemic activity against mouse P388 cells assessed as host survival at 160 mg/kg qd relative to control. Type of test: functional.
Test [10] has as its system P388. As to the kind of experiment: In-vivo antileukemic activity against mouse P388 cells assessed as host survival at 128 mg/kg qd relative to control. The format is functional.
Test [11] deals with P388. As to the kind of experiment: In-vivo antileukemic activity against mouse P388 cells assessed as host survival at 100 mg/kg qd relative to control. The format is functional.
In test [12] the test system is P388. Description: In-vivo antileukemic activity against mouse P388 cells assessed as host survival at 80 mg/kg qd relative to control. Type of test: functional.
Test [13] deals with P388. Description: In-vivo antileukemic activity against mouse P388 cells assessed as host survival at 75 mg/kg qd relative to control. The format is functional.
The subject of test [14] is P388. Description: In-vivo antileukemic activity against mouse P388 cells assessed as host survival at 64 mg/kg qd relative to control. The format is functional.
Test [15] has as its system P388. Description: In-vivo antileukemic activity against mouse P388 cells assessed as host survival at 50 mg/kg qd relative to control. Type of test: functional.
The subject of test [16] is P388. Description: In-vivo antileukemic activity against mouse P388 cells assessed as host survival at 40 mg/kg qd relative to control. The format is functional.
Test [17] concerns P388. Description: In-vivo antileukemic activity against mouse P388 cells assessed as host survival at 32 mg/kg qd relative to control. Type of test: functional.
The test system of test [18] is P388. As to the kind of experiment: In-vivo antileukemic activity against mouse P388 cells assessed as host survival at 25 mg/kg qd relative to control. Type of test: functional.
Test [19] relates to P388. As to the kind of experiment: In-vivo antileukemic activity against mouse P388 cells assessed as host survival at 400 mg/kg qd relative to control. Type of test: functional.
Test [20] has as its system P388. Description: In-vivo antileukemic activity against mouse P388 cells assessed as host survival at 200 mg/kg qd relative to control. Type of test: functional.
Test [21] concerns P388. Description: In-vivo antileukemic activity against mouse P388 cells assessed as host survival at 25 mg/kg qd. Type of test: functional, organism-based. More on the design: dose 25 mg/kg.
In test [22] the test system is P388. As to the kind of experiment: In-vivo antileukemic activity against mouse P388 cells assessed as host survival at 200 mg/kg qd. The format is functional, organism-based. Set-up: dose 200 mg/kg.
The subject of test [23] is P388. Description: In-vivo antileukemic activity against mouse P388 cells assessed as host survival at 120 mg/kg qd relative to control. The format is functional.
Test [24] has as its system P388. Description: In-vivo antileukemic activity against mouse P388 cells assessed as host survival at 120 mg/kg qd. More on the design: dose 120 mg/kg. Type of test: functional, organism-based.
In test [25] the test system is P388. Description: In-vivo antileukemic activity against mouse P388 cells assessed as host survival at 80 mg/kg qd. Type of test: functional, organism-based. More on the design: dose 80 mg/kg.
Test [26] has as its system P388. Description: In-vivo antileukemic activity against mouse P388 cells assessed as host survival at 20 mg/kg qd. Type of test: functional, organism-based. More on the design: dose 20 mg/kg.
Test [27] has as its system P388. Description: In-vivo antileukemic activity against mouse P388 cells assessed as host survival at 10 mg/kg qd. Type of test: functional, organism-based. Set-up: dose 10 mg/kg.
For test [28], the system named is P388. As to the kind of experiment: In-vivo antileukemic activity against mouse P388 cells assessed as host survival at 160 mg/kg qd. The format is functional, organism-based. More on the design: dose 160 mg/kg.
For test [29], the system named is P388. Description: In-vivo antileukemic activity against mouse P388 cells assessed as host survival at 40 mg/kg qd. Type of test: functional, organism-based. Set-up: dose 40 mg/kg.
For test [30], the system named is P388. As to the kind of experiment: In-vivo antileukemic activity against mouse P388 cells assessed as host survival at 168 mg/kg qd. The format is functional, organism-based. More on the design: dose 168 mg/kg.

SMILES strings stand for the structures. Active and inactive are the calls of the source. The rule behind the calls is not given here.

As for `CC(=O)OS(=O)(=O)[O-].COc1cc2cc3c4cc(OC)c(OC)cc4cc[n+]3c(C)c2cc1OC`, the T/C in the test on P388 [1] amounted to 173; with P388 [2] it was 159; in the test on P388 [3], 150; in the test with P388 [4], 157; with P388 [9] it was 170; with P388 [10], 167. The T/C in the test with P388 [11] was found to be 176; in the test with P388 [12], 175; in the test on P388 [13], 175; in the test on P388 [14], 182; in the test with P388 [15] it was 180; with P388 [16] it was 173. The T/C in the test with P388 [17] came to 175. Besides, the outcome with P388 [5], in the test with P388 [6], in the test on P388 [7] and in the test on P388 [8] was Active.
Take `COc1cc2cc3c4cc(OC)c(OC)cc4cc(C)[n+]3cc2cc1OC.[Cl-]`: the T/C with P388 [18] is on record as 139; in the test on P388 [19], 131; in the test with P388 [20], 139; in the test on P388 [11], 134; in the test with P388 [15], 134. Also, the result in the test on P388 [5], in the test on P388 [7], in the test on P388 [21] and in the test on P388 [22] was Active.
`CC(=O)OS(=O)(=O)[O-].COc1cc2cc3cc4cc(OC)c(OC)cc4c(C)[n+]3cc2cc1OC`: the T/C in the test with P388 [1] amounted to 180; in the test on P388 [2], 145; in the test with P388 [4], 140; in the test with P388 [23] it was 150; in the test with P388 [9] it was 200; in the test on P388 [12], 180. The T/C with P388 [16] amounted to 150. In addition, the outcome in the test on P388 [8], in the test with P388 [24], in the test with P388 [25], in the test with P388 [26], in the test with P388 [27] and in the test on P388 [28] was Active. Also, the outcome in the test with P388 [29] was Active.
For the compound `CC(=O)OS(=O)(=O)[O-].COc1cc2cc[n+]3c(C)c4ccc(OC)c(OC)c4cc3c2cc1OC`, the T/C is recorded as 171 with P388 [1], 136 with P388 [2], 127 in the test on P388 [4] and 177 in the test with P388 [16]. Further, the outcome in the test with P388 [8], in the test with P388 [26] and in the test on P388 [27] was Active. Further, the result in the test on P388 [30] was inactive.
For `CC(=O)OS(=O)(=O)[O-].COc1cc2c[n+](C)c3c4ccc(OC)c(OC)c4ccc3c2cc1OC`, the T/C with P388 [1] turned out to be 154; in the test with P388 [2], 149; in the test with P388 [23], 179; with P388 [18] it was 164; with P388 [11], 209; in the test on P388 [12], 170. Further, the T/C in the test with P388 [15] is 174; with P388 [16] it was 153. The result in the test on P388 [5], with P388 [7], in the test with P388 [24], in the test on P388 [25], in the test on P388 [21] and in the test with P388 [26] was Active. Besides, the result in the test with P388 [27] was Active.

The values are drawn from ChEMBL document CHEMBL3272146, “Tetramethoxydibenzoquinolizinium salts. Preparation and antileukemic activity of some positional and structural isomers of coralyne” (1976).
